Assay results: patent publication US6365584B1, “Arylysulphonamide-substituted benzimidazoles having tryptase-inhibiting activity” (Boehringer Ingelheim Pharma KG, priority 1999, dated 2002)
Structures can show the parent of a compound that is named as a salt.

How the values were obtained:
rh beta tryptase = biological target: T1, rh beta tryptase (Homo sapiens, UniProt Q15661); test: tryptase inhibition test (cleavage of N-p-tosyl-Gly-Pro-Lys-para-nitroaniline, p-nitroaniline measured at 405 nm); assay type: biochemical; settings: Tris HCl buffer pH 7.4 with calcium and heparin; substrate 0.6 mM; 5 min pre-incubation, 5 min incubation at 37° C.; enzyme activity 0.91 U/ml
T1 construct: purchased Promega
T1 sequence (Q15661 31-275): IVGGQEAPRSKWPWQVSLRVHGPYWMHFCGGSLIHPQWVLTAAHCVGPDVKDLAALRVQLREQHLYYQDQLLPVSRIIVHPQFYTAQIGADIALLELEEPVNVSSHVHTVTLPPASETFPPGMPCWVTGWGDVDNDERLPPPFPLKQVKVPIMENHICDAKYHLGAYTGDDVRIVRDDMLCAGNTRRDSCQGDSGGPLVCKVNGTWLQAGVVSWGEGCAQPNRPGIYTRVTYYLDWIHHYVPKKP
Protocol: The compounds according to the invention are characterised by their tryptase-inhibiting activity. This ability to inhibit tryptase was investigated using the test described below. The measurement is carried out in Tris HCl buffer (100 mM), which additionally contains calcium (5 mM) and heparin (100 mg/ml), at pH 7.4. The standard used is rh beta tryptase which may be obtained commercially from Promega, for example. The substrate used is N-p-tosyl-Gly-Pro-Lys-para-nitroaniline in a concentration of 0.6 mM. The substrate is digested with tryptase to form p-nitroaniline which can be measured at 405 nm. Usually, an incubation period of 5 minutes and an incubation temperature of 37° C. are chosen. The enzyme activity used is 0.91 U/ml. The measurements are carried out in an Autoanalyser (CobasBio) made by Hofmann LaRoche. The potential inhibitory substances are used in concentrations of 10 μM in the screening, the inhibition of the tryptase being given in percent. The IC50 is determined at over 70% inhibition (concentration at which 50% of the enzyme activity is inhibited). After 5 minutes' pre-incubation of the potential inhibitory substances, the substrate is added to start the reaction, the formation of p-nitroaniline being taken as a measurement of the enzyme activity after 5 minutes, after testing the linearity.
The data obtained after the above test has been carried out (IC50 values) can be found in Table 3.

| Compound | melting point | IC50 (rh beta tryptase) |
| --- | --- | --- |
| Cn1c(CCc2ccc(/C(N)=N/O)cc2)nc2cc(N(CCN3CCOCC3)S(=O)(=O)c3ccccc3)ccc21 [Example 56, N-{2-[2-(4-(amino-hydroximinomethyl)-phenyl)-ethyl]-1-methyl-benzimidazol-5-yl}-N-[2-(morpholin-4-yl)-ethyl]-(benzenesulphonamide)] | 183 to 186 °C | – |
| CCN(CC)CCN(c1ccc2c(c1)nc(CCc1ccc(C(=N)N)cc1)n2C)S(=O)(=O)c1ccc2ccccc2c1 [Example 35, 1-methyl-2-[2-(4-amidino-phenyl)-ethyl]-5-[N-(2-diethylaminoethyl)-naphth-2-yl-sulphonylamino]-benzimidazole] | – | 6.6 nM |
| CCN(CC)CCN(c1ccc2c(c1)nc(CCc1ccc(C(=N)N)cc1)n2CCO)S(=O)(=O)c1ccccc1 [Example 16, 1-(2-hydroxyethyl)-2-[2-(4-amidinophenyl)-ethyl]-5-[N-(2-diethylaminoethyl)-benzene-sulphonylamino]-benzimidazole] | – | 121 nM |
| CN1CCC(CN(c2ccc3c(c2)nc(CCc2ccc(C(=N)N)cc2)n3C)S(=O)(=O)c2ccccc2)C1 (stereo not drawn) [Example 8, 1-methyl-2-[2-(4-amidino-phenyl)-ethyl]-5-[N-(1-methyl-pyrrolidin-3-yl-methyl)-benzene-sulphonyl-amino]-benzimidazole] | – | 89 nM |
| 1-Methyl-2-[2-(4-amidino- phenyl)-ethyl]-5-[N-(4′-(3″- hydroxypropyl)-piperazin-1-yl- carbonylmethyl)-naphth-2-yl- sulphonylamino]-benzimidazole [Example 51] | – | 35 nM |
| CCN(CC)CCN(c1ccc2c(c1)nc(CCc1ccc(C(=N)N)cc1)n2CCOc1ccccc1OC)S(=O)(=O)c1ccccc1 [Example 26, 1-[2-(2-methoxyphenoxy)ethyl]-2-[2-(4-amidinophenyl)-ethyl]-5-[N-(2-diethylaminoethyl)-benzenesulphonylamino]-benzimidazole] | – | 74 nM |
| Cn1c(CCc2ccc(C(=N)N)cc2)nc2cc(N(C3CCNC3)S(=O)(=O)c3ccccc3)ccc21 (stereo not drawn) [Example 14, 1-methyl-2-[2-(4-amidino-phenyl)-ethyl]-5-[N-(3-pyrrolidinyl)-benzenesulphonyl-amino]-benzimidazole] | – | 82 nM |
| CCOCCCn1c(CCc2ccc(C(=N)N)cc2)nc2cc(N(CCN(CC)CC)S(=O)(=O)c3ccccc3)ccc21 [Example 3, N-{2-[2-(4-amidinophenyl)-ethyl]-1-(3-ethoxy-propyl)-benzimidazol-5-yl}-N-diethylaminoethyl-(benzenesulphonamide)-dihydrochloride] | – | 132 nM |
| Cn1c(CCc2ccc(C(=N)N)cc2)nc2cc(N(CCN3CCCCC3)S(=O)(=O)c3ccccc3)ccc21 [Example 33, 1-methyl-2-[2-(4-amidino-phenyl)-ethyl]-5-[N-(2-piperidin-1-ylethyl)-benzene-sulphonylamino]-benzimidazole] | – | 44 nM |
